Results reported in patent US5892063A (Hauser, Inc., priority 1997, dated 1999).

Key:
[1] = system: cell line panel (leukemia, non-small-cell lung cancer, colon, CNS, melanoma, ovarian, renal, prostate and breast cancers); experiment: SRB growth screen, whole cell line panel; format: cell-based
Procedure: The screening assay is performed on 96-well microtitre plates. […] Duplicate wells are prepared for all concentrations; "time-zero" and "nodrug" controls are also provided for each test. […] One hundred microliters of SRB solution (0.4% w/v in 1% acetic acid) is added to each microtitre well and incubated for 10 minutes at room temperature.
The response parameters GI50 and LC50 are interpolated values representing the concentrations at which the percentage growth (PG) is +50 and -50 respectively:
GI50 is the concentration for which the PG=+50.
TGI is the concentration for which PG=0.
LC50 is the concentration for which the PG=-50. […] This is interpreted as cytotoxicity.
The data represented in Table I is graphically represented in FIGS. 1a and 1b through FIGS. 9a and 9b. […] The following is an example of how the information in Table I and in the Figures is interpreted.

[2] = system: HS 578T; experiment: SRB growth screen, breast cancer HS 578T; details: Homo sapiens, 48 h
[3] = system: tumor models; details: cited from earlier work
[4] = system: microtubule; details: cited from earlier work

| SMILES | potency as compared to paclitaxel ([1]; on the whole, all cell lines) | Log10 TGI, Range ([1]; range over cell lines (log10 units)) | GI50 ([2]; read-out: Log10 GI50 (converted)) [nM] | CC50 ([2]; read-out: Log10 LC50 (converted)) [nM] | IC (TGI) ([2]; read-out: Log10 TGI) [nM] | activity in model tumor systems [3] | effect on microtubules [4] |
| --- | --- | --- | --- | --- | --- | --- | --- |
| CC(=O)O[C@H]1C(=O)[C@@]2(C)[C@H]([C@H](OC(=O)c3ccccc3)[C@]3(O)C[C@H](OC(=O)[C@H](O)[C@@H](NC(=O)C4(C)OC4C)c4ccccc4)C(C)=C1C3(C)C)[C@]1(OC(C)=O)CO[C@@H]1C[C@@H]2O (stereo partly shown) [Ceph-epoxide, cephalomannine epoxide] | equivalent to and in many instances greater than that of paclitaxel's | 4.00 | < 10 | > 100000 | 55 |  |  |
| CC(=O)O[C@H]1C(=O)[C@@]2(C)[C@H]([C@H](OC(=O)c3ccccc3)[C@]3(O)C[C@H](OC(=O)[C@H](O)[C@@H](NC(=O)c4ccccc4)c4ccccc4)C(C)=C1C3(C)C)[C@]1(OC(C)=O)CO[C@@H]1C[C@@H]2O [Paclitaxel, paclitaxel, reference compound] |  |  |  |  |  | excellent activity | stabilizes microtubules and inhibits depolymerization back to tubulin |
